{"source": "patent US11690915", "key": {"[1]": {"conditions": "from CC(C)(CO)Cc1c(-c2ccnc(N3CCN(C(=O)OCc4ccccc4)CC3)c2)n(C(C)(C)C#N)c2ccc(-c3csc(C[C@H](NC(=O)OC(C)(C)C)C(=O)N4CCC[C@@H](C(=O)O)N4)n3)cc12; ester bond; 18-membered ring; EDC/HOBt/DIEA; DCM; 1.05 mM"}, "[2]": {"conditions": "18-membered ring"}}, "note": "Like-named read-outs stand apart in the source and are kept apart here."}
{"smiles": "CC1(C)COC(=O)[C@@H]2CCCN(N2)C(=O)[C@@H](NC(=O)OC(C)(C)C)Cc2nc(cs2)-c2ccc3c(c2)c(c(-c2ccnc(N4CCN(C(=O)OCc5ccccc5)CC4)c2)n3C(C)(C)C#N)C1", "values": [{"measurement": "ring closure, crude yield", "setting": "[1]", "value": 52, "unit": "%"}]}
{"smiles": "CCn1c(-c2cccnc2[C@H](C)OC)c2c3cc(ccc31)-c1csc(n1)[C@@H](OCC(F)F)[C@H](NC(=O)OC(C)(C)C)C(=O)N1CCC[C@H](N1)C(=O)OCC(C)(C)C2", "values": [{"measurement": "ring closure, isolated yield", "setting": "[2]; from CCn1c(-c2cccnc2[C@H](C)OC)c(CC(C)(C)COC(=O)[C@@H]2CCCN(C(=O)[C@@H](NC(=O)OC(C)(C)C)[C@H](OCC(F)F)c3nc(Br)cs3)N2)c2cc(B3OC(C)(C)C(C)(C)O3)ccc21, cc_pd bond, Pd(DtBPF)Cl2/K3PO4, toluene/1,4-dioxane/H2O 3:1:1, 10.0 mM, 60.0 °C, 1.0 h", "value": 59, "unit": "%"}]}
{"smiles": "CCn1c(-c2cc(N3CCN(C(=O)OCc4ccccc4)CC3)cnc2[C@H](C)OC)c2c3cc(ccc31)-c1csc(n1)C[C@H](NC(=O)OC(C)(C)C)C(=O)N1CCC[C@H](N1)C(=O)OCC(C)(C)C2", "values": [{"measurement": "ring closure, isolated yield", "setting": "[2]; from CCn1c(-c2cc(N3CCN(C(=O)OCc4ccccc4)CC3)cnc2[C@H](C)OC)c(CC(C)(C)CO)c2cc(-c3csc(C[C@H](NC(=O)OC(C)(C)C)C(=O)N4CCC[C@@H](C(=O)O)N4)n3)ccc21, ester bond, EDC/HOBt/DIEA, MeCN, 10.3 mM, 25.0 °C", "value": 54.8, "unit": "%"}]}
{"smiles": "CO[C@@H](C)c1ncccc1-c1c2c3cc(ccc3n1CCOC1CCOCC1)-c1csc(n1)C[C@H](NC(=O)OC(C)(C)C)C(=O)N1CCC[C@H](N1)C(=O)OCC(C)(C)C2", "values": [{"measurement": "ring closure, isolated yield", "setting": "[2]; from CO[C@@H](C)c1ncccc1-c1c(CC(C)(C)CO)c2cc(-c3csc(C[C@H](NC(=O)OC(C)(C)C)C(=O)N4CCC[C@@H](C(=O)O)N4)n3)ccc2n1CCOC1CCOCC1, ester bond, EDC/HOBt/DIEA, DCM, 7.0 mM", "value": 68, "unit": "%"}]}
{"smiles": "CC1(C)COC(=O)[C@@H]2CCCN(N2)C(=O)[C@@H](NC(=O)OC(C)(C)C)Cc2nc(cs2)-c2ccc3[nH]c(I)c(c3c2)C1", "values": [{"measurement": "ring closure, isolated yield", "setting": "[2]; from CC(C)(CO)Cc1c(I)[nH]c2ccc(-c3csc(C[C@H](NC(=O)OC(C)(C)C)C(=O)N4CCC[C@@H](C(=O)O)N4)n3)cc12, ester bond, EDC/HOBt/DIEA, DCM, 17.6 mM", "value": 45.9, "unit": "%"}]}
